Assay results: ChEMBL document CHEMBL1201862, “PubChem BioAssay data set” (2004)
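Dose response: 5 concentrations. Exposure: 48 h. Format: 96-well plates. Endpoint: linear interpolation; highest concentration if not reached. Here, GI50 denotes the concentration required for 50% inhibition of growth.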 The source made the active and inactive calls. No stated cut-off is given here; in the data, active = GI50 up to about 1.1 µM and inactive = higher.

Columns and labels:
Experiment in all cases: growth of human tumour cells (NCI), 48 h
UACC-257 = tested on: UACC-257
Malme-3M = tested on: Malme-3M
OVCAR-3 = tested on: OVCAR-3
SNB-78 = tested on: SNB-78
SW-620 = tested on: SW-620
SR = tested on: SR
MOLT-4 = tested on: MOLT-4
HOP-62 = tested on: HOP-62
KM12 = tested on: KM12
OVCAR-5 = tested on: OVCAR-5
HCT-116 = tested on: HCT-116
NCI-H460 = tested on: NCI-H460
IGROV-1 = tested on: IGROV-1
DMS-114 = tested on: DMS-114
SK-MEL-28 = tested on: SK-MEL-28
TK-10 = tested on: TK-10
OVCAR-8 = tested on: OVCAR-8
XF498 = tested on: XF498
SF-295 = tested on: SF-295
UO-31 = tested on: UO-31
SNB-19 = tested on: SNB-19
A498 = tested on: A498
DMS-273 = tested on: DMS-273
SK-MEL-2 = tested on: SK-MEL-2
UACC-62 = tested on: UACC-62
HT-29 = tested on: HT-29
RPMI-8226 = tested on: RPMI-8226
K562 = tested on: K562
HOP-18 = tested on: HOP-18
A549 = tested on: A549
NCI-H23 = tested on: NCI-H23
DLD-1 = tested on: DLD-1
786-0 = tested on: 786-0
HOP-92 = tested on: HOP-92
SF-268 = tested on: SF-268
LXFL 529 = tested on: LXFL 529
SF-539 = tested on: SF-539
NCI-H522 = tested on: NCI-H522
LOX IMVI = tested on: LOX IMVI
HL-60 = tested on: HL-60
KM-20L2 = tested on: KM-20L2
SK-MEL-5 = tested on: SK-MEL-5
SK-OV-3 = tested on: SK-OV-3
CCRF-CEM = tested on: CCRF-CEM
M19-MEL = tested on: M19-MEL
EKVX = tested on: EKVX
U-251 = tested on: U-251
CAKI-1 = tested on: CAKI-1
HCT-15 = tested on: HCT-15
M14 = tested on: M14
HCC 2998 = tested on: HCC 2998
NCI-H226 = tested on: NCI-H226
RXF 393 = tested on: RXF 393
ACHN = tested on: ACHN
OVCAR-4 = tested on: OVCAR-4
SNB-75 = tested on: SNB-75
SN12C = tested on: SN12C
COLO 205 = tested on: COLO 205

For NCCCCC(=O)c1cccnc1, the GI50 (UACC-257) was > 100 µM (inactive), the GI50 (Malme-3M) was > 100 µM (inactive) and the GI50 (OVCAR-3) was > 100 µM (inactive). The GI50 (SNB-78) was > 100 µM (inactive), the GI50 (SW-620) was > 100 µM (inactive) and the GI50 (SR) was > 100 µM (inactive). For the same compound, the GI50 (MOLT-4) was > 100 µM (inactive), the GI50 (HOP-62) was > 100 µM (inactive) and the GI50 (KM12) was > 100 µM (inactive). The GI50 (OVCAR-5) was > 100 µM (inactive), the GI50 (HCT-116) was > 100 µM (inactive) and the GI50 (NCI-H460) was > 100 µM (inactive). The GI50 (IGROV-1) was > 100 µM (inactive), the GI50 (DMS-114) was > 100 µM (inactive) and the GI50 (SK-MEL-28) was > 100 µM (inactive). The GI50 (TK-10) was > 100 µM (inactive), the GI50 (OVCAR-8) was > 100 µM (inactive) and the GI50 (XF498) was > 100 µM (inactive). The GI50 (SF-295) was > 100 µM (inactive), the GI50 (UO-31) was > 100 µM (inactive) and the GI50 (SNB-19) was > 100 µM (inactive). For the same compound, the GI50 (A498) was > 100 µM (inactive), the GI50 (DMS-273) was > 100 µM (inactive) and the GI50 (SK-MEL-2) was > 100 µM (inactive). The GI50 (UACC-62) was > 100 µM (inactive), the GI50 (HT-29) was > 100 µM (inactive) and the GI50 (RPMI-8226) was > 100 µM (inactive). For the same compound, the GI50 (K562) was > 100 µM (inactive), the GI50 (HOP-18) was > 100 µM (inactive) and the GI50 (A549) was > 100 µM (inactive). The GI50 (NCI-H23) was > 100 µM (inactive), the GI50 (DLD-1) was > 100 µM (inactive) and the GI50 (786-0) was > 100 µM (inactive). For the same compound, the GI50 (HOP-92) was > 100 µM (inactive), the GI50 (SF-268) was > 100 µM (inactive) and the GI50 (LXFL 529) was > 100 µM (inactive). The GI50 (SF-539) was > 100 µM (inactive), the GI50 (NCI-H522) was > 100 µM (inactive) and the GI50 (LOX IMVI) was > 100 µM (inactive). The GI50 (HL-60) was > 100 µM (inactive), the GI50 (KM-20L2) was > 100 µM (inactive) and the GI50 (SK-MEL-5) was > 100 µM (inactive). The GI50 (SK-OV-3) was > 100 µM (inactive), the GI50 (CCRF-CEM) was > 100 µM (inactive) and the GI50 (M19-MEL) was > 100 µM (inactive). The GI50 (EKVX) was > 100 µM (inactive), the GI50 (U-251) was > 100 µM (inactive) and the GI50 (CAKI-1) was > 100 µM (inactive). The GI50 (HCT-15) was > 100 µM and the GI50 (M14) was > 100 µM (inactive).

In the case of O=c1c(Cl)c(Cl)cnn1CCc1ccncc1, the GI50 (UACC-257) is reported as 17.7 µM (inactive), the GI50 (Malme-3M) is reported as 22 µM (inactive) and the GI50 (OVCAR-3) is reported as 17.6 µM (inactive). The GI50 (SNB-78) was 25.1 µM (inactive), the GI50 (SW-620) was 19.1 µM (inactive) and the GI50 (SR) was 20.8 µM (inactive). The GI50 (MOLT-4) was 82.6 µM (inactive), the GI50 (HOP-62) was 18.3 µM (inactive) and the GI50 (KM12) was 12.5 µM (inactive). The GI50 (OVCAR-5) was 19.5 µM (inactive), the GI50 (HCT-116) was 16.6 µM (inactive) and the GI50 (NCI-H460) was 20.1 µM (inactive). For the same compound, the GI50 (HCC 2998) was 14.5 µM (inactive), the GI50 (IGROV-1) was 17.3 µM (inactive) and the GI50 (DMS-114) was 14 µM (inactive). For the same compound, the GI50 (SK-MEL-28) was 16.4 µM (inactive), the GI50 (NCI-H226) was 29.4 µM (inactive) and the GI50 (TK-10) was 47.5 µM (inactive). The GI50 (RXF 393) was 24.6 µM (inactive), the GI50 (OVCAR-8) was 22.1 µM (inactive) and the GI50 (XF498) was 15.5 µM (inactive). The GI50 (SF-295) was 29.5 µM (inactive), the GI50 (UO-31) was 20.8 µM (inactive) and the GI50 (SNB-19) was 15.6 µM (inactive). For the same compound, the GI50 (A498) was 21.6 µM (inactive), the GI50 (DMS-273) was 18.6 µM (inactive) and the GI50 (SK-MEL-2) was 20.3 µM (inactive). For the same compound, the GI50 (UACC-62) was 20.8 µM (inactive), the GI50 (HT-29) was 16.6 µM (inactive) and the GI50 (RPMI-8226) was 36.6 µM (inactive). The GI50 (ACHN) was 19.2 µM (inactive), the GI50 (K562) was 35.3 µM (inactive) and the GI50 (HOP-18) was 20 µM (inactive). For the same compound, the GI50 (A549) was 37.9 µM (inactive), the GI50 (OVCAR-4) was 18.6 µM (inactive) and the GI50 (NCI-H23) was 17.3 µM (inactive). The GI50 (DLD-1) was 14.6 µM (inactive), the GI50 (786-0) was 19.6 µM (inactive) and the GI50 (HOP-92) was 20.4 µM (inactive). For the same compound, the GI50 (SF-268) was 20.6 µM (inactive), the GI50 (LXFL 529) was 15.8 µM (inactive) and the GI50 (SF-539) was 21.5 µM (inactive). For the same compound, the GI50 (LOX IMVI) was 17.8 µM (inactive), the GI50 (HL-60) was 21.8 µM (inactive) and the GI50 (KM-20L2) was 18.9 µM (inactive). The GI50 (SK-MEL-5) was 16.1 µM (inactive), the GI50 (CCRF-CEM) was 19.1 µM (inactive) and the GI50 (M19-MEL) was 15.5 µM (inactive). The GI50 (SNB-75) was 16.6 µM (inactive), the GI50 (EKVX) was 19.6 µM (inactive) and the GI50 (SN12C) was 18 µM (inactive). The GI50 (CAKI-1) was 1.98 µM (inactive), the GI50 (HCT-15) was 16.4 µM and the GI50 (M14) was 16.7 µM (inactive).

In the case of C[n+]1ccc(-c2cc[n+](C)cc2)cc1 [PARAQUAT DICHLORIDE], the GI50 (UACC-257) is reported as 1.5 µM (inactive), the GI50 (Malme-3M) is reported as 0.265 µM (active) and the GI50 (OVCAR-3) is reported as 14 µM (inactive). The GI50 (SNB-78) was > 22.3 µM (inactive), the GI50 (SW-620) was > 42 µM (inactive) and the GI50 (SR) was 11.6 µM (inactive). The GI50 (MOLT-4) was > 34.5 µM (inactive), the GI50 (HOP-62) was 14.7 µM (inactive) and the GI50 (KM12) was 5.83 µM (inactive). The GI50 (OVCAR-5) was 19.7 µM (inactive), the GI50 (NCI-H460) was 9.42 µM (inactive) and the GI50 (HCC 2998) was 14.5 µM (inactive). For the same compound, the GI50 (IGROV-1) was 18 µM (inactive), the GI50 (DMS-114) was 8.75 µM (inactive) and the GI50 (NCI-H226) was 8.43 µM (inactive). For the same compound, the GI50 (TK-10) was > 53.6 µM (inactive), the GI50 (RXF 393) was 0.644 µM (active) and the GI50 (OVCAR-8) was > 30 µM (inactive). The GI50 (XF498) was 3.74 µM (inactive), the GI50 (SF-295) was > 19.6 µM (inactive) and the GI50 (UO-31) was > 100 µM (inactive). The GI50 (SNB-19) was 4.99 µM (inactive), the GI50 (A498) was > 32.6 µM (inactive) and the GI50 (DMS-273) was 10.5 µM (inactive). For the same compound, the GI50 (SK-MEL-2) was 2.69 µM (inactive), the GI50 (UACC-62) was 7.19 µM (inactive) and the GI50 (HT-29) was 10.8 µM (inactive). For the same compound, the GI50 (RPMI-8226) was > 70 µM (inactive), the GI50 (ACHN) was > 26.4 µM (inactive) and the GI50 (K562) was > 100 µM (inactive). The GI50 (HOP-18) was > 100 µM (inactive), the GI50 (A549) was 12.1 µM (inactive) and the GI50 (OVCAR-4) was 1.55 µM (inactive). For the same compound, the GI50 (NCI-H23) was 12.2 µM (inactive), the GI50 (DLD-1) was > 30.3 µM (inactive) and the GI50 (786-0) was > 100 µM (inactive). For the same compound, the GI50 (HOP-92) was > 44.5 µM (inactive), the GI50 (SF-268) was > 22.5 µM (inactive) and the GI50 (LXFL 529) was > 37.1 µM (inactive). For the same compound, the GI50 (COLO 205) was 14.8 µM (inactive), the GI50 (SF-539) was 20.7 µM (inactive) and the GI50 (LOX IMVI) was > 22.9 µM (inactive). The GI50 (HL-60) was 10 µM (inactive), the GI50 (KM-20L2) was 17 µM (inactive) and the GI50 (SK-MEL-5) was 11.5 µM (inactive). For the same compound, the GI50 (SK-OV-3) was > 24.7 µM (inactive), the GI50 (CCRF-CEM) was > 48.4 µM (inactive) and the GI50 (M19-MEL) was 9.42 µM (inactive). For the same compound, the GI50 (SNB-75) was 33.5 µM (inactive), the GI50 (EKVX) was > 30.6 µM (inactive) and the GI50 (SN12C) was 10.2 µM (inactive). The GI50 (U-251) was > 32.8 µM (inactive), the GI50 (CAKI-1) was > 100 µM (inactive) and the GI50 (HCT-15) was > 32.4 µM. The GI50 (M14) was 13.9 µM (inactive).
